{"source": "patent US20220339135A1", "about": "“COMPOSITIONS AND METHODS FOR MODULATING AN INFLAMMATORY RESPONSE” (Enzychem Lifesciences Corporation, priority 2019, published 2022)", "key": {"[1]": {"system": "ERK, p38 MAPK, JNK in THP-1 cells", "experiment": "Gemcitabine-induced phosphorylation of ERK, p38 MAPK, JNK, western blot", "format": "cell-based, human", "experimental": "(§1) Total cells were lysed on ice for 30 minutes in RIPA buffer composed of 50 mM Tris-HCl (pH 7.4), 150 mM NaCl, 2 mM EDTA, 1% NP-40, 0.5% sodium deoxycholate, 0.1% SDS, 1 mM phenylmethylsulfonyl fluoride (PMSF), 10 mM sodium fluoride, 2 mM sodium pyrophosphate, 10 mM β-glycerophosphate, 10 mM sodium orthovanadate. Membrane-and-cytoplasmic protein fractions of cultured cells were obtained with Mem-PER Plus Membrane Protein Extraction Kit (Thermo Scientific, MA, USA) according to the manufacturer's instructions. The lysates were centrifuged at 13,000 rpm for 20 minutes at 4° C. and protein concentrations were determined using the Bradford assay (Bio-Rad Laboratories). Denatured samples were mixed with a 5×SDS-PAGE loading buffer and heated to 100° C. for 15 min. The samples were separated on the 10% of SDS-PAGE gel and transferred to polyvinylidene difluoride (PVDF) membranes (Merck Millipore Corporation, MA, USA). Membranes were blocked with 5% non-fat milk in PBS (10 mM Tris-HCl, pH7.5, 150 mM NaCl) for 1 h and probed with primary antibodies against ERK1/2, phospho-ERK1/2, P38, phospho-P38, SAPK/JNK, phospho-SAPK/JNK, Na, K-ATPase, α-Tubulin, and β-actin from Cell Signaling Technology (MA, USA), Rac1 from Merck Millipore Corporation), p47phox and phospho-p47phox from Invitrogen, adenosine receptor A1 from Abcam, β arrestin-1 from Santa Cruz Technology for overnight at 4° C. The blots were washed and incubated with appropriate secondary antibodies and visualized using Pierce ECL Western Blotting Substrate (Thermo Scientific)."}, "[2]": {"system": "MIP2 and CXCL8 in BMDM and THP-1", "experiment": "Gemcitabine-induced MIP-2 / CXCL8, RT-PCR and ELISA", "format": "cell-based", "settings": "dose-dependent", "from_the_text": "Total RNA was extracted using the Total RNA Extraction Solution (Favorgen, Taiwan), according to the manufacturer's instructions. This RNA was used in reverse transcription reactions with oligo-dT primers and M-MLV RT reagents (Promega, Madison, Wis., USA), according to the manufacturer's instructions. For RT-PCR, the synthesized cDNA was mixed with 2×PCR Master Mix (Solgent, Daejeon, Republic of Korea) and 10 pmol specific PCR primer pair following the manufacturer's protocol. […] An SYBR Green kit (Applied Biosystems, Foster City, Calif., USA) was used for real-time PCR (qPCR) analysis of cDNA according to the manufacturer's instructions. […] The relative expression levels of target genes were calculated by the 2^-ΔΔCT relative quantification method. […] The concentration of MIP-2 was measured using ELISA kits for MIP-2 (R&D Systems, Minneapolis, Minn., USA according to the manufacturers' instructions. Cytokine levels were estimated by interpolation from a standard curve generated using an ELISA reader (Molecular Devices) at 450 nm. Total RNAs from cells were isolated using TRIzol® reagent (Invitrogen, CA, USA) according to the manufacturer's instructions. RT-PCR was performed using PCR reagent (Bioassay, Daejeon, South Korea). […]"}, "[3]": {"system": "Rac1, p47phox in BMDMs and THP-1 cells", "experiment": "Rac1 membrane translocation and p47phox phosphorylation", "format": "cell-based", "experimental": "as §1, with “The blots were washed and incubated with appropriate secondary antibodies and visualized using Pierce ECL Western Blotting Substrate (Thermo Scientific).” left out"}, "[4]": {"system": "citrullinated histone H3 in dHL-60 cells", "experiment": "Histone H3 citrullination, western blot", "format": "cell-based, human", "settings": "time-dependent", "experimental": "dHL-60 cells were lysed on ice for 30 minutes in RIPA buffer composed of 50 mM Tris-HCl (pH 7.4), 150 mM NaCl, 2 mM EDTA, 1% NP-40, 0.5% sodium deoxycholate, 0.1% SDS, 1 mM phenylmethylsulfonyl fluoride (PMSF), 10 mM sodium fluoride, 2 mM sodium pyrophosphate, 10 mM β-glycerophosphate, 10 mM sodium orthovanadate. The lysates were centrifuged at 13,000 rpm for 20 minutes at 4° C. and protein concentrations were determined using the Bradford assay (Bio-Rad Laboratories). Denatured samples were mixed with a 5×SDS-PAGE loading buffer and heated to 100° C. for 15 min. The samples were separated on the 10% of SDS-PAGE gel and transferred to polyvinylidene difluoride (PVDF) membranes (Merck Millipore Corporation, MA, USA). Membranes were blocked with 5% non-fat milk in PBS (10 mM Tris-HCl, pH7.5, 150 mM NaCl) for 1 h and probed with primary antibodies against histone H3 (citrulline R2+R8+R17) from abcam (USA) and β-actin from cell signaling (USA) for overnight at 4° C. The blots were washed and incubated with appropriate secondary antibodies and visualized using Pierce™ ECL Western Blotting Substrate (Thermo Scientific)."}}, "data": [{"smiles": "CCCCC/C=C\\C/C=C\\CCCCCCCC(=O)OC(COC(C)=O)COC(=O)CCCCCCCCCCCCCCC", "note": "(racemic) [PLAG, 1-palmitoyl-2-linoleoyl-3-acetylglycerol]", "values": [{"measurement": "gemcitabine-induced phosphorylation of ERK and p38 MAPK", "setting": "[1]", "value": "dose-dependently decreased"}, {"measurement": "gemcitabine-induced phosphorylation of JNK", "setting": "[1]", "value": "did not"}, {"measurement": "gemcitabine-induced chemokines MIP2 and CXCL8, transcriptional and secreted protein level", "setting": "[2]", "value": "effectively reduced"}, {"measurement": "gemcitabine-induced p47phox phosphorylation", "setting": "[3]; dose-dependent", "value": "effectively inhibited"}, {"measurement": "translocation of Rac1 from the cytosol to the membrane", "setting": "[3]; gemcitabine-stimulated THP-1 cells", "value": "significantly inhibited"}, {"measurement": "histone H3 citrullination", "setting": "[4]", "value": "induced"}]}]}
